Measured values from patent US9346794B1, “Substituted 4-pyridones and their use as inhibitors of neutrophil elastase activity” (Boehringer Ingelheim International GmbH, priority 2012, dated 2016).

Biological target: Human neutrophil elastase (Homo sapiens (Human), UniProt P08246)
Assay: Human Neutrophil Elastase Assay
Type: biochemical
Conditions: substrate MeOSuc-Ala-Ala-Pro-Val-AMC 250 μM, fluorescence, pH 7.5
Description: Human Neutrophil Elastase Assay
All other materials were of the highest grade commercially available.
The following buffers were used: Compound buffer: 100 mM Tris, 500 mM NaCl, adjusted to pH 7.5; Assay buffer: 100 mM Tris, 500 mM NaCl, adjusted to pH 7.5, containing 0.01% BSA.
Assay conditions: Test compounds were prediluted in DMSO and subsequently in compound buffer (5% DMSO final). […] After inactivation of the enzyme, fluorescence intensities were measured at 380 nm excitation and 460 nm emission wavelengths.
Each plate contains wells with a high value control (DMSO+enzyme+substrate) and wells with a low value control (DMSO+inactivated enzyme+substrate). IC50 values were estimated using a sigmoidal concentration response curve with variable slope. Means of low values were taken as 0%, means of high values as 100%. IC50 values of selected compound in the Neutrophil Elastase assay: […]

Human neutrophil elastase, sequence (P08246 30-247): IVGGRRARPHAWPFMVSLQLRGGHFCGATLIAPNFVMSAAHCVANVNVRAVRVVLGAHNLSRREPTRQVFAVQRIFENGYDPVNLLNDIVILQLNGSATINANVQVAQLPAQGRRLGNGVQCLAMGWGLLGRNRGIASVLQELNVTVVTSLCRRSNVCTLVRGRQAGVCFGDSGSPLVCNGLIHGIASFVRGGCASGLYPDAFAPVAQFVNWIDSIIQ

Row | IC50 [nM] | Structure (SMILES)
1 | 2.3 | Cc1c(-c2cccc(C(F)(F)F)c2)c(=O)c(C(=O)NCc2ccc(S(C)(=O)=NC#N)cc2)cn1C1CCOC1 (stereo not drawn) [Example 54]
2 | 1.4 | Cc1c(-c2cccc(C(F)(F)F)c2)c(=O)c(C(=O)NCc2ccc(S(=O)(=NC#N)C3CC3)cc2)cn1C(C)C (stereo not drawn) [Example 63, 1-Isopropyl-6-methyl-4-oxo-5-(3-trifluoromethyl-phenyl)-1,4-dihydro-pyridine-3-carboxylic acid 4-(S-cyclopropyl-N-cyanosulfonimidoyl)-benzylamide]
3 | 2.2 | CCn1cc(C(=O)NCc2ccc(S(=O)(CC)=NC#N)cc2)c(=O)c(-c2cccc(C(F)F)c2)c1C (single isomer, unassigned) [Example 29A]
4 | 12 | Cc1c(-c2ccnc(C(F)(F)F)c2)c(=O)c(C(=O)NCc2ccc(S(C)(=O)=NC#N)cc2)cn1C(C)C (single isomer, unassigned) [Example 3A, 1-Isopropyl-2-methyl-4-oxo-2′-trifluoromethyl-1,4-dihydro-[3,4′]-bipyridinyl-5-carboxylic acid 4-(N-cyano-S-methylsulfonimidoyl)-benzylamide]
5 | 22 | CN=S(=O)(c1ccc(CNC(=O)c2cn(C(C)C)c(C)c(-c3cccc(C(F)(F)F)c3)c2=O)cc1)N(C)C (stereo not drawn) [Example 60, 5-(3-Trifluoromethyl-phenyl)-1-isopropyl-6-methyl-4-oxo-1,4-dihydro-pyridine-3-carboxylic acid 4-(N,N,N′-trimethylsulfamimidoyl)-benzylamide]
6 | 4.7 | Cc1c(-c2ccnc(C(F)(F)F)c2)c(=O)c(C(=O)NCc2ccc(S(C)(=O)=NC#N)cc2)cn1C(C)C (racemic) [Example 3, 1-Isopropyl-2-methyl-4-oxo-2′-trifluoromethyl-1,4-dihydro-[3,4′]-bipyridinyl-5-carboxylic acid 4-(N-cyano-S-methylsulfonimidoyl)-benzylamide]
7 | 5.6 | Cc1c(-c2cccc(C(F)(F)F)c2)c(=O)c(C(=O)NCc2ccc(S(C)(=O)=NC#N)cc2)cn1C1CC1 (single isomer, unassigned) [Example 20]
8 | 5.5 | Cc1c(-c2cccc(C(F)(F)F)c2)c(=O)c(C(=O)NCc2ccc(S(C)(=O)=NC#N)cc2)cn1-c1ccccc1 (single isomer, unassigned) [Example 24]
9 | 7.3 | Cc1noc(-n2cc(C(=O)NCc3ccc(S(C)(=O)=NC#N)cc3)c(=O)c(-c3cccc(C(F)(F)F)c3)c2C)c1C (stereo not drawn) [Example 49]
10 | 3.4 | Cc1cc(CNC(=O)c2cn(C(C)C)c(C)c(-c3cccc(C(F)(F)F)c3)c2=O)ccc1S(C)(=O)=NC#N (stereo not drawn) [Example 66, 1-Isopropyl-6-methyl-4-oxo-5-(3-trifluoromethyl-phenyl)-1,4-dihydro-pyridine-3-carboxylic acid 3-methyl-4-(N-cyano-S-methylsulfonimidoyl)-benzylamide]
11 | 1.5 | Cc1c(-c2cccc(C(F)(F)F)c2)c(=O)c(C(=O)NCc2ccc(S(C)(=O)=NC#N)cc2F)cn1C(C)C (stereo not drawn) [Example 14]
12 | 3.7 | Cc1c(-c2cccc(C(F)F)c2)c(=O)c(C(=O)NCc2ccc(S(C)(=O)=NC#N)cc2)cn1-c1cccnc1 (single isomer, unassigned) [Example 39]
13 | 7.3 | Cc1c(-c2cccc(C(F)(F)F)c2)c(=O)c(C(=O)NCc2ccc(S(C)(=O)=NS(C)(=O)=O)cc2)cn1C(C)C (stereo not drawn) [Example 17]
14 | 4.7 | Cc1ccc(-n2cc(C(=O)NCc3ccc(S(C)(=O)=NC#N)cc3)c(=O)c(-c3cccc(C(F)(F)F)c3)c2C)cn1 (stereo not drawn) [Example 58]
15 | 4 | Cc1c(-c2cccc(C(F)F)c2)c(=O)c(C(=O)NCc2ccc(S(C)(=O)=NC#N)cc2)cn1-c1ccncc1 (single isomer, unassigned) [Example 40]
16 | 4.3 | Cc1c(-c2cccc(C(F)(F)F)c2)c(=O)c(C(=O)NCc2ccc(S(C)(=O)=NC#N)cc2)cn1-c1ccccn1 (single isomer, unassigned) [Example 25]
17 | 2.5 | Cc1c(-c2cccc(C(F)F)c2)c(=O)c(C(=O)NCc2ccc(S(C)(=O)=NC#N)cc2F)cn1C(C)C (stereo not drawn) [Example 33]
18 | 1.6 | CCn1cc(C(=O)NCc2ccc(S(C)(=O)=NC#N)cc2)c(=O)c(-c2cccc(C(F)(F)F)c2)c1C (single isomer, unassigned) [Example 4B, 1-Ethyl-6-methyl-4-oxo-5-(3-trifluoromethyl-phenyl)-1,4-dihydro-pyridine-3-carboxylic acid 4-(N-cyano-S-methylsulfonimidoyl)-benzylamide]
19 | 1.5 | CCS(=O)(=NC#N)c1ccc(CNC(=O)c2cn(-c3ccnn3C)c(C)c(-c3cccc(C(F)(F)F)c3)c2=O)cc1 (stereo not drawn) [Example 18]
20 | 3.7 | Cc1c(-c2cccc(C(F)F)c2)c(=O)c(C(=O)NCc2ccc(S(C)(=O)=NC#N)cc2)cn1-c1ccccc1 (single isomer, unassigned) [Example 38]
21 | < 1 | CCn1cc(C(=O)NCc2ccc(S(=O)(CC)=NC#N)cc2)c(=O)c(-c2cccc(C(F)F)c2)c1C (single isomer, unassigned) [Example 29B]
22 | 1.2 | CCn1cc(C(=O)NCc2ccc(S(=O)(CC)=NC#N)cc2)c(=O)c(-c2cccc(C(F)(F)F)c2)c1C (single isomer, unassigned) [Example 10B]
23 | < 1 | Cc1c(-c2cccc(C(F)F)c2)c(=O)c(C(=O)NCc2ccc(S(=O)(=NC#N)C(C)C)cc2)cn1-c1ccnn1C (stereo not drawn) [Example 37]

Second part, the molecule before the results:

Row | Structure (SMILES) | IC50 [nM]
24 | Cc1ccncc1-n1cc(C(=O)NCc2ccc(S(C)(=O)=NC#N)cc2)c(=O)c(-c2cccc(C(F)(F)F)c2)c1C (stereo not drawn) [Example 57] | 1.7
25 | Cc1c(-c2ccnc(C(F)(F)F)c2)c(=O)c(C(=O)NCc2ccc(S(C)(=O)=NC#N)cc2)cn1-c1cccnc1 (single isomer, unassigned) [Example 45] | 14.4
26 | Cc1cc(S(C)(=O)=NC#N)ccc1CNC(=O)c1cn(C(C)C)c(C)c(-c2cccc(C(F)(F)F)c2)c1=O (stereo not drawn) [Example 15] | 2.2
27 | Cc1c(-c2cccc(C(F)(F)F)c2)c(=O)c(C(=O)NCc2ccc(S(C)(=O)=NC#N)c(F)c2)cn1C(C)C (stereo not drawn) [Example 13] | 2.4
28 | Cc1c(-c2ccnc(C(F)(F)F)c2)c(=O)c(C(=O)NCc2ccc(S(C)(=O)=NC#N)cc2)cn1-c1ccccn1 (single isomer, unassigned) [Example 44] | 14.9
29 | CCS(=O)(=NC#N)c1ccc(CNC(=O)c2cn(C3CC3)c(C)c(-c3cccc(C(F)(F)F)c3)c2=O)cc1 (single isomer, unassigned) [Example 21B] | 2.1
30 | Cc1c(-c2cccc(C(F)(F)F)c2)c(=O)c(C(=O)NCc2ccc(S(C)(=O)=NC#N)cc2)cn1-c1nccs1 (stereo not drawn) [Example 56] | 3.1
31 | Cc1c(-c2ccnc(C(F)(F)F)c2)c(=O)c(C(=O)NCc2ccc(S(C)(=O)=NC#N)cc2)cn1-c1ccncc1 (single isomer, unassigned) [Example 46] | 11.7
32 | CCn1cc(C(=O)NCc2ccc(S(=O)(CC)=NC#N)cc2)c(=O)c(-c2cccc(C(F)(F)F)c2)c1C (stereo not drawn) [Example 10] | 1.2
33 | Cc1c(-c2cccc(C(F)(F)F)c2)c(=O)c(C(=O)NCc2ccc(S(C)(=O)=NC#N)cc2)cn1Cc1ccc(C#N)cc1 (stereo not drawn) [Example 9, 1-(4-Cyano-benzyl)-6-methyl-4-oxo-5-(3-trifluoromethyl-phenyl)-1,4-dihydro-pyridine-3-carboxylic acid 4-(N-cyano-S-methylsulfonimidoyl)-benzylamide] | < 1
34 | Cc1c(-c2cccc(C(F)(F)F)c2)c(=O)c(C(=O)NCc2ccc(S(C)(=O)=NC#N)cc2)cn1-c1cccnc1 (single isomer, unassigned) [Example 26] | 3.3
35 | Cc1c(-c2cccc(C(F)(F)F)c2)c(=O)c(C(=O)NCc2ccc(S(C)(=O)=NC#N)c[n+]2[O-])cn1C(C)C (stereo not drawn) [Example 62, 5-(3-Trifluoromethyl-phenyl)-1-isopropyl-6-methyl-4-oxo-1,4-dihydro-pyridine-3-carboxylic acid (5-(N-cyano-S-methylsulfonimidoyl)-1-oxy-pyridin-2-yl)-methylamide] | 2.7
36 | Cc1c(-c2cccc(C(F)F)c2)c(=O)c(C(=O)NCc2ccc(S(C)(=O)=NC#N)cc2)cn1-c1ccnn1C (stereo not drawn) [Example 7, 5-(3-Difluoromethyl-phenyl)-6-methyl-1-(2-methyl-2H-pyrazol-3-yl)-4-oxo-1,4-dihydro-pyridine-3-carboxylic acid 4-(N-cyano-S-methylsulfonimidoyl)-benzylamide] | 2.1
37 | Cc1c(-c2cccc(C(F)F)c2)c(=O)c(C(=O)NCc2ccc(S(C)(=O)=NS(C)(=O)=O)cc2)cn1C(C)C (stereo not drawn) [Example 35] | 8
38 | Cc1c(-c2ccc(F)c(C(F)(F)F)c2)c(=O)c(C(=O)NCc2ccc(S(C)(=O)=NC#N)cc2)cn1C(C)C (single isomer, unassigned) [Example 41] | 1.8
39 | CCS(=O)(=NC#N)c1ccc(CNC(=O)c2cn(C(C)C)c(C)c(-c3cccc(C(F)F)c3)c2=O)cc1 (stereo not drawn) [Example 31] | < 1
40 | Cc1c(-c2cccc(C(F)F)c2)c(=O)c(C(=O)NCc2ccc(S(C)(=O)=NC#N)cc2)cn1C(C)C (stereo not drawn) [Example 1B, 5-(3-Difluoromethyl-phenyl)-1-isopropyl-6-methyl-4-oxo-1,4-dihydro-pyridine-3-carboxylic acid 4-(N-cyano-S-methylsulfonimidoyl)-benzylamide] | 1.3
41 | Cc1c(-c2cccc(C(F)(F)F)c2)c(=O)c(C(=O)NCc2ccc(S(C)(=O)=NC#N)cc2)cn1-c1cncnc1 (single isomer, unassigned) [Example 28] | 3.3
42 | CCn1cc(C(=O)NCc2ccc(S(=O)(=NC#N)C(C)C)cc2)c(=O)c(-c2cccc(C(F)F)c2)c1C (single isomer, unassigned) [Example 30A] | 1.8
